Laboratory results from the supplement of paper PMC6723410.

Tested on: GUMC-403
Assay: viability at highest tested concentration (max response) relative to DMSO (% of DMSO control); higher = less cytotoxic
Settings: library / dose series: MIPE library, 11-point 1:3 dilution, 48 h
Outline: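 Each figure stands for viability at the highest tested concentration compared with vehicle control. It was measured by CellTiter-Glo luminescence on a ViewLux after 48 h of exposure to 23 nL of pinned compound, with vehicle wells taken as 100% and empty wells as 0%. The cells were patient-derived GUMC-403 papilloma cells grown by conditional reprogramming, plated at 700/well in 5 μL F + Y medium in 1536-well plates.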

| SMILES | viability (top concentration 46.1 µM) | viability (top concentration 92.2 µM) |
| --- | --- | --- |
| CC(C)[C@H](CO)Nc1nc(Nc2ccc(C(=O)O)c(Cl)c2)c2ncn(C(C)C)c2n1 | 75.1 |  |
| OCCN(CCO)c1nc(N2CCCCC2)c2nc(N(CCO)CCO)nc(N3CCCCC3)c2n1 | 77 |  |
| COc1cccc(N(C)C(=S)Oc2ccc3c(c2)CCCC3)n1 | 126 |  |
| CCOCC(O)COc1ccc(NC(=O)CC[S+](C)C)cc1 (stereo unspecified) | 111 |  |
| CCn1c(-c2nonc2N)nc2cnc(Oc3cccc(NC(=O)c4ccc(OCCN5CCOCC5)cc4)c3)cc21 | 65.4 |  |
| O=C(CCCCCCC(=O)Nc1ccccc1)NO | 99 |  |
| CC[C@@H]1/C=C(\C)C[C@H](C)C[C@H](OC)[C@H]2O[C@@](O)(C(=O)C(=O)N3CCCC[C@H]3C(=O)O[C@H](/C(C)=C/[C@@H]3CC[C@H](Cl)[C@H](OC)C3)[C@H](C)[C@@H](O)CC1=O)[C@H](C)C[C@@H]2OC | 63.6 |  |
| O=C(Nc1nc2cccc(-c3ccc(CN4CC[S+](=O)([O-])CC4)cc3)n2n1)C1CC1 | 40.4 |  |
| CC(=O)Oc1cc2c(s1)CCN(C(C(=O)C1CC1)c1ccccc1F)C2.Cl (stereo unspecified) | 114 |  |
| CC/1=C/N([C@@H]2C[C@@H](O)[C@H](CO)O2)C(=O)NC1=O | 117 |  |
| O=C(O)c1ccc2cc(-c3ccc(O)c(C45CC6CC(CC(C6)C4)C5)c3)ccc2c1 | 109 |  |
| C=C1C(=O)O[C@@H]2[C@H]3O[C@]3(C)CC/C=C(\C)CC[C@@H]12 | 108 |  |
| CNCc1ccc(-c2[nH]c3cc(F)cc4c3c2CCNC4=O)cc1 | 93.2 |  |
| CC(=O)Nc1ccc(OC[C@](C)(O)C(=O)Nc2ccc([N+](=O)[O-])c(C(F)(F)F)c2)cc1 | 88.4 |  |
| C[C@]1(O)CC(C1)C2=NC(=C3[N]2C=CN=C3N)C4=CC5=C(C=C4)C=CC(=N5)C6=CC=CC=C6 (stereo unspecified) | 86.4 |  |
| O=C(c1ccc(/C=C/c2n[nH]c3ccccc23)cc1)N1CCNCC1 | 86.5 |  |
| O=C1c2c(O)cc(O)cc2O[C@H](c2cc(O)c(O)c(O)c2)[C@H]1O | 115 |  |
| CCc1cncnc1N1CCN(Cc2nc3cc(C(F)(F)F)ccc3[nH]2)CC1 | 84.5 |  |
| C=C1CCC2[C@](C)(CO)C(O)CC[C@]2(C)C1C/C=C1/C(=O)OCC1O (stereo partly specified) |  | 106 |
| C[C@@H]1CC[C@@]2(OC1)OC1CC3C4CC=C5CC(O)CCC5(C)C4CCC3(C)C1[C@@H]2C (stereo partly specified) | 120 |  |
| C[C@H]1[C@H](O)O[C@@H]2O[C@@]3(C)CC[C@H]4[C@H](C)CC[C@@H]1[C@@]24OO3 | 90.6 |  |

| SMILES | viability (top concentration 46.1 µM) | viability (top concentration 92.2 µM) |
| --- | --- | --- |
| C1COC(NC(C2CC2)C2CC2)=N1 | 91.2 |  |
| COc1cc(C(=O)NS(=O)(=O)c2ccccc2C)ccc1Cc1cn(C)c2ccc(NC(=O)OC3CCCC3)cc12 | 28.5 |  |
| CN[C@@H](C)C(=O)N[C@H]1CCCC[C@H]2CC[C@@H](C(=O)N[C@@H](c3ccccc3)c3cn(CCCCc4ccc(CCCCn5cc([C@@H](NC(=O)[C@@H]6CC[C@@H]7CCCC[C@H](NC(=O)[C@H](C)NC)C(=O)N76)c6ccccc6)nn5)cc4)nn3)N2C1=O | 110 |  |
| COc1cc([C@@H]2c3cc4c(cc3[C@@H](O[C@@H]3O[C@@H]5CO[C@@H](C)O[C@H]5[C@H](O)[C@H]3O)[C@H]3COC(=O)[C@H]23)OCO4)cc(OC)c1O | 124 |  |
| O=C(NNC(=O)c1ccc(CN[S+](=O)([O-])c2ccc(F)c(Cl)c2)cc1)c1ccccc1 | 129 |  |
| O=C(/C=C/c1ccc(O)cc1)c1ccc(O)cc1O | 77 |  |
| O=C1\C=C(OC2=C(C=CC=C12)C3=CC=CC4=C3SC5=C4C=CC=C5)\N6CCOCC6 | 70.9 |  |
| COC[C@H](c1ccc(C(F)(F)F)cc1)N1CCN(C2(C)CCN(C(=O)c3c(C)ncnc3C)CC2)C[C@H]1C.O=C(O)/C=C\C(=O)O | 57.9 |  |
| CN1C(=O)COc2c(C(=O)NC3CN4CCC3CC4)cc(Cl)cc21 (stereo unspecified) | 107 |  |
| Cc1ccc(NC(=O)c2ccc(CN3CCN(C)CC3)cc2)cc1Nc1nccc(-c2cccnc2)n1 | 127 |  |
| CCNC(=O)CCC/C=C\C[C@@H]1[C@@H](/C=C/C(O)CCc2ccccc2)[C@@H](O)C[C@@H]1O (stereo partly specified) | 109 |  |
| CC(=O)[C@H]1CC[C@H]2[C@@H]3CCC4=CC(=O)CC[C@]4(C)[C@H]3CC[C@]12C | 118 |  |
| COc1cc2c(Oc3ccc(NC(=O)C4(C(=O)Nc5ccc(F)cc5)CC4)cc3F)ccnc2cc1OCCCN1CCOCC1 | 23.1 |  |
| Cc1ccc(C(=O)c2cc(O)c(O)c([N+](=O)[O-])c2)cc1 | 102 |  |
| CCOC(=O)[C@@H](N)Cc1ccc(-c2cc(O[C@H](c3ccc(Cl)cc3-n3ccc(C)n3)C(F)(F)F)nc(N)n2)cc1.O=C(O)CNC(=O)c1ccccc1 | 117 |  |
| O=NN(CCCl)C(=O)NCCCl | 131 |  |
| CN(C)CCN(Cc1ccc(Cl)cc1)c1ccccn1.Cl | 97.6 |  |
| CNc1nccc(-c2cccnc2Oc2cc(C(=O)Nc3cccc(C(F)(F)F)c3)ccc2C)n1 | 98 |  |
| C=C1C(=O)OC2/C=C(/C)CC/C=C(/C)CCC12 (stereo unspecified) | 113 |  |
| CCOC(=O)c1c(C)n(C)c2ccc(O)cc12 | 108 |  |
